Where two headings read alike, the source gives them in different places. One block for each compound: values may come before it.
How the values were obtained:
[1] = PET imaging and biodistribution in SK-MEL-24 tumor-bearing mice; format: in vivo, mouse; conditions: mouse, intravenous, SK-MEL-24 in NSG mice, 20 μCi; for tissue uptake at 1 h: n=3
Method: (§1) Cell uptake assays, flow cytometry, and IHC were performed as described previously. Banerjee et al., 2019; Nimmagadda et al., 2018. PET imaging and biodistribution Sequential PET imaging and biodistribution studies were conducted to quantify and validate PET imaging data. Briefly, tumor-bearing mice were administrated approximately 7.4 MBq of radiotracer in 150 μL saline via tail-vein injection. They were randomized into the indicated groups of 3-4 mice before radiotracer injection.
(§2) In Experiment 2, SK-MEL-24 tumor-bearing mice (n=3-4) were investigated.
(§3) Dose: 20 μCi, n=3 at 1 h and n=4 at 2 and 4 h per group, Tumor model: SK-MEL-24 in NSG mice

SK-MEL-24 tumor = test: as above; format: in vivo, mouse; conditions: SK-MEL-24 in NSG mice, 20 μCi, in %ID/g
Method: as §1, §2, §3

FAP = FAP (Homo sapiens (Human), UniProt Q12884); test: FAP inhibition assay (recombinant enzyme, Z-Gly-Pro-AMC substrate); format: biochemical
Sequence of FAP (Q12884 whole entry): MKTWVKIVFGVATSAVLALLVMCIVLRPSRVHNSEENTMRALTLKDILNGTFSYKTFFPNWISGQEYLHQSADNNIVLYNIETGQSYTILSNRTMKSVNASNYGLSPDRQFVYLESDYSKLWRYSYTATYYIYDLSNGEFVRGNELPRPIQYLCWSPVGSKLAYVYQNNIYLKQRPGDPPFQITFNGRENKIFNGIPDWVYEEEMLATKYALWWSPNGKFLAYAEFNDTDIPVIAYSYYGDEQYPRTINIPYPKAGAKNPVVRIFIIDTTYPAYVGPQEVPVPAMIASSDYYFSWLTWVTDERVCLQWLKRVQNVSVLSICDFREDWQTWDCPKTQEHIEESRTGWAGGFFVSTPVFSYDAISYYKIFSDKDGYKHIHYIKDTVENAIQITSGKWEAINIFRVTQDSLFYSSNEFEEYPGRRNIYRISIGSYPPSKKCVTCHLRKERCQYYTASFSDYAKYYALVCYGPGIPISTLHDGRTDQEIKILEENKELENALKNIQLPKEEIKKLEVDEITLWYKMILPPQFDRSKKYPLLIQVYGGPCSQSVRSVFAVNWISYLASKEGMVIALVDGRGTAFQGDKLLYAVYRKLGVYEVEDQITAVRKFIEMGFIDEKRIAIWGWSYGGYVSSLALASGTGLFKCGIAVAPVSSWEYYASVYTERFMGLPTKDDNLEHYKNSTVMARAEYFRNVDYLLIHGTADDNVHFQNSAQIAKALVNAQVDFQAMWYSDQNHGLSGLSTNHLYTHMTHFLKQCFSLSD
Method: (§4) PSMA binding affinities of the compounds were determined using a competitive inhibition assay as previously reported. […] FAP, prolyl endopeptidase (PREP), and […] (DPPIV) inhibition assays: Recombinant enzymes (FAP, PREP, DPPIV) were purchased from R&D Systems (Minneapolis, MN). […] Z-Gly-Pro-AMC was used as a substrate for FAP and PREP. H-Gly-Pro-AMC was used as a substrate for DPPIV. The recombinant enzyme (0.4 μg/mL) was incubated with varying amounts of the test articles in the presence of the designated substrate (80 μM) for 10 min at room temperature. Fluorescence intensity was measured with 380 nm excitation and 460 nm emission using the Cytation 5 Cell Imaging Multi-Mode Reader (BioTek, Winooski, VT). IC50 and Ki values were obtained using a sigmoidal dose-response function.

PREP = PREP (Homo sapiens (Human), UniProt P48147); test: PREP inhibition assay (recombinant enzyme, Z-Gly-Pro-AMC substrate); format: biochemical; conditions: Table 4
Sequence of PREP (P48147 whole entry): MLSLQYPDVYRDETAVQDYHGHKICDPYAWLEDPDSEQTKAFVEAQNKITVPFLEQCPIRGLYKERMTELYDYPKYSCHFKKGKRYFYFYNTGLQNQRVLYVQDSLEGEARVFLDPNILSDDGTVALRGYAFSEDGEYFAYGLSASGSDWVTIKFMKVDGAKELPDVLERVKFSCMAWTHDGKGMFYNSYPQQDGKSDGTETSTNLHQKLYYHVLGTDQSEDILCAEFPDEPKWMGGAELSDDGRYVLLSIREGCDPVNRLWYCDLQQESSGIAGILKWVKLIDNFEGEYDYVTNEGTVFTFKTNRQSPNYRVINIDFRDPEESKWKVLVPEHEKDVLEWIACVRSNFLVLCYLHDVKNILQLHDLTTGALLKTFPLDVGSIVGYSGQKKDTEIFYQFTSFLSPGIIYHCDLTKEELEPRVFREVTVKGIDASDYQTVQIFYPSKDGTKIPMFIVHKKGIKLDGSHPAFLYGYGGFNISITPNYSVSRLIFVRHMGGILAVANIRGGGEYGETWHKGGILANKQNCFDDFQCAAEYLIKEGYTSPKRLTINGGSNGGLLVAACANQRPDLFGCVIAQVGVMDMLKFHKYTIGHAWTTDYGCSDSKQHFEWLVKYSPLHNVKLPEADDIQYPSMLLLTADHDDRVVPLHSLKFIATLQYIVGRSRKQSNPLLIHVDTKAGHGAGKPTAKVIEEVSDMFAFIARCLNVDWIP
Method: as §4

FAP+ HT-1080 tumors = test: Small animal PET/CT of ^68Ga-labeled SB-FAP-01 in FAP+ HT-1080 and wild type tumors; format: in vivo; conditions: 60 minutes after intravenous administration
Method: Small animal PET/CT imaging was performed at 60 minutes after intravenous administration to this mirroring experimental model; and […]

DPPIV = DPPIV (Homo sapiens (Human), UniProt P27487); test: DPPIV inhibition assay (recombinant enzyme, H-Gly-Pro-AMC substrate); format: biochemical; conditions: Table 4; read-out: DPPIV IC50
Sequence of DPPIV (P27487 whole entry): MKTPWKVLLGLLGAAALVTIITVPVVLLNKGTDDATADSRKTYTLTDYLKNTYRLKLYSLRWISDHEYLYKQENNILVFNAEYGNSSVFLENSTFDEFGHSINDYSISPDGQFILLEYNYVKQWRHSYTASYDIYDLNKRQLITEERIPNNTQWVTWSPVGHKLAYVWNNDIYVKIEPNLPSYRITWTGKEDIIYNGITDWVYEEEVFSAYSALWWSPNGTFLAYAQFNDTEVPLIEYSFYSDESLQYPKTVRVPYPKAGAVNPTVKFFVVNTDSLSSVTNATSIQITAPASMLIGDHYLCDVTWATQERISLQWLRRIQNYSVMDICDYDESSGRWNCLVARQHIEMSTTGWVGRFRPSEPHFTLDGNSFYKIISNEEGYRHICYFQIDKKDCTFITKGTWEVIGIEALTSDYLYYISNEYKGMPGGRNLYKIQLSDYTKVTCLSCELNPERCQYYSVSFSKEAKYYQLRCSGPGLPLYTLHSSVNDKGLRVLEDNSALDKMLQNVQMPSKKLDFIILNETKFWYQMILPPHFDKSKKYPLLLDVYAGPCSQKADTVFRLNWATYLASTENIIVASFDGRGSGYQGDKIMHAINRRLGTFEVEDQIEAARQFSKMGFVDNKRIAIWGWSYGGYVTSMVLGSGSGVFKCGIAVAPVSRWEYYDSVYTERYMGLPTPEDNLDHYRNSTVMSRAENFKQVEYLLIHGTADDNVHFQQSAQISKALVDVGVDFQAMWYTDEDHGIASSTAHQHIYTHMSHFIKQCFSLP
Method: as §4

PSMA = PSMA (Homo sapiens (Human), UniProt Q04609); test: PSMA competitive inhibition assay (NAAG substrate, LNCaP cell lysate); format: biochemical
Sequence of PSMA (Q04609 whole entry): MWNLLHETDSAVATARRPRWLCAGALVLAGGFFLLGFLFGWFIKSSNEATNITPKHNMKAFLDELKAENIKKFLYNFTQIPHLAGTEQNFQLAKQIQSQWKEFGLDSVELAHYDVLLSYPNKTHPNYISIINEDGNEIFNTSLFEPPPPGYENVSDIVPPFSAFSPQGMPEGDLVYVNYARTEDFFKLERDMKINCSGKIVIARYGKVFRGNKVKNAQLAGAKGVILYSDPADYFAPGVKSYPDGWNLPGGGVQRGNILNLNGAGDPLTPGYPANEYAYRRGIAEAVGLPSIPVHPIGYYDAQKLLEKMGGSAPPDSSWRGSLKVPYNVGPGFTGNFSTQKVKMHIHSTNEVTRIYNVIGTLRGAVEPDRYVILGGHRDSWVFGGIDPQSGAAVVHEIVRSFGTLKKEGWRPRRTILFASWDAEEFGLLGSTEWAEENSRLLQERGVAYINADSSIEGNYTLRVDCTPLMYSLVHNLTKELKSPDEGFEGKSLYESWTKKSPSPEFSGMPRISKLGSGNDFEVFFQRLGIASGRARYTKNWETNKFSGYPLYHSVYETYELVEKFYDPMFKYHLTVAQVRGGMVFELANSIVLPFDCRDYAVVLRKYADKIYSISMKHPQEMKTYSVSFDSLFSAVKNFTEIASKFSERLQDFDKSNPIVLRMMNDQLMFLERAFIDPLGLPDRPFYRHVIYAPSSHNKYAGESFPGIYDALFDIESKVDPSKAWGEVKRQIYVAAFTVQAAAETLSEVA
Method: as §4

tissue uptake at 1 h ([1]; bladder, read-out: Biodistribution: Bladder): 3.53 ± 0.52 %ID/g | tissue uptake at 1 h ([1]; lacrimal gland, read-out: Biodistribution: Lac gl): 9.2 ± 1.74 %ID/g | tissue uptake at 2 h ([1]; lacrimal gland, 2 h, n=4, read-out: Biodistribution: Lac gl): 7 ± 2.22 %ID/g | tissue uptake at 4 h ([1]; lacrimal gland, n=4, read-out: Biodistribution: Lac gl): 3.01 ± 1.94 %ID/g | tissue uptake at 1 h ([1]; salivary gland, read-out: Biodistribution: Sal gl): 12.6 ± 2.46 %ID/g | tissue uptake at 4 h ([1]; salivary gland, n=4, read-out: Biodistribution: Sal gl): 4.47 ± 0.89 %ID/g | tissue uptake at 4 h ([1]; small intestine, n=4, read-out: Biodistribution: Sm in): 3.54 ± 0.57 %ID/g | Biodistribution: Blood (SK-MEL-24 tumor; 1 h, n=3): 9.73 ± 0.29 | Biodistribution: Bone (SK-MEL-24 tumor; 1 h, n=3): 6.00 ± 0.27 | Biodistribution: Fat (SK-MEL-24 tumor; 1 h, n=3): 0.80 ± 0.31 | Biodistribution: Heart (SK-MEL-24 tumor; 1 h, n=3): 4.36 ± 0.23 | Biodistribution: Kidney (SK-MEL-24 tumor; 1 h, n=3): 8.08 ± 1.48 | Biodistribution: Liver (SK-MEL-24 tumor; 1 h, n=3): 5.30 ± 0.77 | Biodistribution: Lung (SK-MEL-24 tumor; 1 h, n=3): 7.30 ± 1.16 | Biodistribution: Muscle (SK-MEL-24 tumor; 1 h, n=3): 2.99 ± 0.18 | Biodistribution: Panc (SK-MEL-24 tumor; 1 h, n=3): 9.98 ± 0.99 | Biodistribution: SKMEL24 (SK-MEL-24 tumor; 1 h, n=3): 13.25 ± 1.32 | Biodistribution: Sm in (SK-MEL-24 tumor; 1 h, n=3): 6.52 ± 0.85 | Biodistribution: Spleen (SK-MEL-24 tumor; 1 h, n=3): 3.06 ± 0.46 | Biodistribution: Stomach (SK-MEL-24 tumor; 1 h, n=3): 3.29 ± 1.04 | Biodistribution: Bladder (SK-MEL-24 tumor; 2 h, n=4): 4.76 ± 2.68 | Biodistribution: Blood (SK-MEL-24 tumor; 2 h, n=4): 6.36 ± 0.89 | Biodistribution: Bone (SK-MEL-24 tumor; 2 h, n=4): 5.61 ± 1.73 | Biodistribution: Fat (SK-MEL-24 tumor; 2 h, n=4): 0.91 ± 0.83 | Biodistribution: Heart (SK-MEL-24 tumor; 2 h, n=4): 2.92 ± 0.27 | Biodistribution: Kidney (SK-MEL-24 tumor; 2 h, n=4): 8.05 ± 1.27 | Biodistribution: Liver (SK-MEL-24 tumor; 2 h, n=4): 5.82 ± 0.72 | Biodistribution: Lung (SK-MEL-24 tumor; 2 h, n=4): 5.76 ± 0.57 | Biodistribution: Muscle (SK-MEL-24 tumor; 2 h, n=4): 2.24 ± 0.42 | Biodistribution: Panc (SK-MEL-24 tumor; 2 h, n=4): 6.66 ± 0.38 | Biodistribution: SKMEL24 (SK-MEL-24 tumor; 2 h, n=4): 12.48 ± 1.03 | Biodistribution: Sm in (SK-MEL-24 tumor; 2 h, n=4): 5.44 ± 1.52 | Biodistribution: Spleen (SK-MEL-24 tumor; 2 h, n=4): 2.56 ± 0.40 | Biodistribution: Stomach (SK-MEL-24 tumor; 2 h, n=4): 3.20 ± 0.85 | Biodistribution: Bladder (SK-MEL-24 tumor; 4 h, n=4): 4.63 ± 1.72 | Biodistribution: Blood (SK-MEL-24 tumor; 4 h, n=4): 3.29 ± 0.07 | Biodistribution: Bone (SK-MEL-24 tumor; 4 h, n=4): 3.42 ± 0.92 | Biodistribution: Fat (SK-MEL-24 tumor; 4 h, n=4): 0.49 ± 0.14 | Biodistribution: Heart (SK-MEL-24 tumor; 4 h, n=4): 1.87 ± 0.26 | Biodistribution: Kidney (SK-MEL-24 tumor; 4 h, n=4): 7.26 ± 3.43 | Biodistribution: Liver (SK-MEL-24 tumor; 4 h, n=4): 6.03 ± 1.00 | Biodistribution: Lung (SK-MEL-24 tumor; 4 h, n=4): 4.55 ± 0.51 | Biodistribution: Muscle (SK-MEL-24 tumor; 4 h, n=4): 1.32 ± 0.22 | Biodistribution: Panc (SK-MEL-24 tumor; 4 h, n=4): 4.48 ± 0.88 | Biodistribution: SKMEL24 (SK-MEL-24 tumor; 4 h, n=4): 9.82 ± 3.39 | Biodistribution: Spleen (SK-MEL-24 tumor; 4 h, n=4): 2.69 ± 0.44 | Biodistribution: Stomach (SK-MEL-24 tumor; 4 h, n=4): 2.23 ± 0.58
Structure (SMILES): N#C[C@@H]1CCCN1C(=O)CNC(=O)c1ccnc2ccc(OCCCNC(=O)CCc3cn(CCOCCOCCOCCOCCOCCOCCC(=O)N[C@@H](CCCCNC(=O)CN4CCN(CC(=O)O)CCN(CC(=O)O)CC4)C(=O)NCCCCC(=O)N(CCCC[C@H](NC(=O)N[C@@H](CCC(=O)O)C(=O)O)C(=O)O)Cc4ccc(Br)cc4)nn3)cc12

Structure (SMILES): N#C[C@@H]1CCCN1C(=O)CNC(=O)c1ccnc2ccc(OCCCNC(=O)CCc3cn(CCOCCOCCOCCC(=O)N[C@@H](CCCCNC(=O)CN4CCN(CC(=O)O)CCN(CC(=O)O)CCN(CC(=O)O)CC4)C(=O)NCCCCC(=O)N(CCCC[C@H](NC(=O)N[C@@H](CCC(=O)O)C(=O)O)C(=O)O)Cc4ccc(Br)cc4)nn3)cc12 [SB-FAP-01, (14S,27S,31S)-22-(4-bromobenzyl)-1-(4-(3-((3-((4-((2-((S)-2-cyanopyrrolidin-1-yl)-2-oxoethyl)carbamoyl)quinolin-6-yl)oxy)propyl)amino)-3-oxopropyl)-1H-1,2,3-triazol-1-yl)-12,15,21,29-tetraoxo-14-(4-(2-(4,7,10-tris(carboxymethyl)-1,4,7,10-tetraazacyclododecan-1-yl)acetamido)butyl)-3,6,9-trioxa-13,16,22,28,30-pentaazatritriacontane-27,31,33-tricarboxylic acid]
Ki (FAP; 95% CI, read-out: FAP Binding affinity Ki (95% CI)): 0.00025 to 0.00051 µM | IC50 (FAP; Table 4): 0.00179 µM | Ki (FAP; Table 4, read-out: FAP Ki): 0.00036 µM | Ki (FAP; read-out: FAP Binding affinity Ki): 0.00036 µM | IC50 (PREP): 0.35 µM | PET/CT tumor imaging (FAP+ HT-1080 tumors): able to image tumors derived from FAP+ HT-1080 human fibrosis cells engineered to overexpressed FAP, but not those which are not | IC50 (DPPIV): 16.9 µM | Ki (PSMA; 95% CI, read-out: PSMA Binding affinity Ki (95% CI)): 0.0073 to 0.0379 µM | IC50 (PSMA; Table 4): 0.0832 µM | Ki (PSMA; Table 4, read-out: PSMA Ki): 0.0166 µM | Ki (PSMA; read-out: PSMA Binding affinity Ki): 0.0166 µM
